Data set [1] in a line: Cyclic voltammetry (formal potentials, Randles-Sevcik diffusion coefficients). Format: physicochemical. Here is the method:
(§1) CV and EIS experiments were ran using a PalmSens4 potentiostat with the PSTrace software. Electrochemical experiments were performed in 1.0 M NaCl supporting electrolyte using 15 mM of active material at room temperature (18° C.). Formal potentials for the redox couples were estimated by taking the average potential between the cathodic and anodic peak. Diffusional behavior was investigated by varying the scan rate between 10-100 mV·s^−1 for the first electron reduction and 50-200 mV·s^−1 for the second electron reduction, and the diffusion constants of the reduced and oxidized states (D^R and D^O) were determined via the Randles-Sevcik equation assuming ideal reversible behavior (FIG. 12D). Potentiostatic EIS measurements were used for determination of a combined diffusional constant of the reduced and oxidized states (D^EIS) and of the standard electron kinetic rate constant (k^o). These EIS measurements were performed at the formal reduction potential (held for 30 seconds before measurement) in which the concentration of the two redox states at the electrode surface were assumed to be the same and equal to half of the initially prepared redox species concentration.
(§2) A glassy carbon working electrode (CH Instruments, 0.0707 cm^2), a saturated calomel reference electrode (SCE, CH Instruments, +0.241 V vs. SHE), and a platinum wire counter electrode were used for both CV and EIS measurements. The working electrode was polished with 1 μm, 0.3 μm, and 0.05 μm alumina slurry successively. All electrodes were rinsed with deionized water in between measurements.
CVs were taken at various scan rates in order to determine the diffusion coefficients via the Randles-Sevcik relation (Eqn. 1) where ip is the peak current in Amps, n is number of electrons transferred, F is Faraday's constant, A is electrode surface area in cm^2, C is the redox species concentration in mole·cm^−3, R is the ideal gas constant, T is temperature, D is the diffusion coefficient, and v is scan rate in V/s. The anodic peak current […] determines the diffusion coefficient of the reduced state (D^R) while the cathodic peak current (ip,a) determines the diffusion coefficient of the oxidized state (D^O). ip=0.4463n^3/2·F^3/2·A·C·R^−1/2·T^−1/2·D^1/2·v^1/2 Eqn. 1

Data set [2] is described as follows: Electrochemical impedance spectroscopy (EIS). In kind it is physicochemical. Here is the method:
as §1, §2
Potentiostatic EIS measurements were taken at the formal potential in which the reduction and oxidation processes are at equilibrium and the concentrations of the reduced and oxidized states can be assumed equal. This permitted simple calculation of the standard kinetic rate constant (k^o) via Eqn. 2 where R is the ideal gas constant, T is temperature, n is number of electrons, RCT is the charge-transfer resistance, F is Faraday's constant, A is the electrode surface area in cm^2, and C is the concentration of either the oxidized or reduced form at the electrode surface in mole cm^−3 (which is assumed to be half of the initially prepared redox species concentration, C═C^O═C^R=0.5 Cinitial).
A combined diffusion coefficient of the reduced and oxidized state (D^EIS) can also be determined using Eqn. 3, where σ is the Warburg diffusional impedance variable and all other variables have the previously defined meaning.
RCT and σ can be determined by fitting the impedance spectrum to the ideal Randles equivalent circuit for a 3-electrode system where Ru is the uncompensated resistance between the working and reference electrode, RCT is the charge transfer resistance between the working electrode and the redox species, WD is the Warburg diffusional element, and CPE is the constant phase element that represents capacitive behavior of the working electrode.
The raw data was fitted based on this equivalent circuit using the Z-Fitting tool on the PSTrace software and with the Levenberg-Marquardt algorithm across the entire measured frequency range. For the second redox state, D2^EIS were 3.6×10^−6 cm^2·s^−1 and 3.8×10^−6 cm^2·s^−1 and k2^o were 0.13 cm·s^−1 and 0.23 cm·s^−1 for Dex-Vi and BTMAP-Vi, respectively.

Structures are written as SMILES.

For `C[N+](C)(C)CC(O)C[n+]1ccc(-c2cc[n+](CC(O)C[N+](C)(C)C)cc2)cc1` (stereo not shown) [Dex-Vi, bis(3-trimethylammonio-2-hydroxy)propyl viologen tetrachloride], in data set [1] (15 mM in 1.0 M NaCl, 18° C.), the “first electron formal potential (E1^0)” value is listed as −0.322 V vs. SHE. In data set [1] (Table 1), the “E1^0” value is on record as −0.322 V vs. SHE and the “E2^0” value is listed as −0.699 V vs. SHE. Also, the “reduced state diffusion coefficient (D1^R)” value in data set [1] (first redox state, 3+ species) is 1.9×10^−6 cm^2·s^−1. Also, in data set [1] (first redox state, 4+ species), the “oxidized state diffusion coefficient (D1^O)” value is 2.3×10^−6 cm^2·s^−1. Further, in data set [1] (second redox state), the “D2^O” value is 4.0×10^−6 cm^2·s^−1 and the “D2^R” value is listed as 3.1×10^−6 cm^2·s^−1. Besides, in data set [1] (vs. SHE, 15 mM in 1.0 M NaCl, 18° C.), the “second electron formal potential (E2^0)” value was −0.699 V. In data set [2] (Example 2), the “EIS D” value was found to be 3.516E−06 cm^2/s, the “EIS i^0” value is recorded as 6.57E−04 A and the “EIS k^0” value came out at 0.0128 cm/s. In addition, in data set [2] (Table 1), the “k1^0” value was 0.05 cm/s. In addition, in data set [2] (first reduction), the “combined diffusion coefficient (D1^EIS)” value is listed as 3.9×10^−6 cm^2·s^−1 and the “standard rate constant (k1^0)” value was 0.05 cm/s. Also, in data set [2] (second redox state), the “D2^EIS” value is 3.6×10^−6 cm^2·s^−1 and the “k2^o” value worked out at 0.13 cm/s.

Values taken from patent US12291513B2, “Pyridinium derivatives made by hydrothermal synthesis for use as anolytes in electrochemical cells” (Wisconsin Alumni Research Foundation, priority 2021, dated 2025).
